Measurements from publication PMC7616177, “From structure to clinic: Design of a muscarinic M1 receptor agonist with the potential to treat Alzheimer’s disease” (Cell, 2021).
Read-outs that look alike come from different tables or passages of the source.

What was measured:
human M1 receptor = molecular target: T1, human M1 receptor (Homo sapiens, UniProt P11229); assay: M1-receptor functional agonist assays (pERK1/2 and calcium mobilisation) for hits and SAR; type: cell-based
T1 construct: expressed in transfected cells
T1 sequence (P11229 1-460): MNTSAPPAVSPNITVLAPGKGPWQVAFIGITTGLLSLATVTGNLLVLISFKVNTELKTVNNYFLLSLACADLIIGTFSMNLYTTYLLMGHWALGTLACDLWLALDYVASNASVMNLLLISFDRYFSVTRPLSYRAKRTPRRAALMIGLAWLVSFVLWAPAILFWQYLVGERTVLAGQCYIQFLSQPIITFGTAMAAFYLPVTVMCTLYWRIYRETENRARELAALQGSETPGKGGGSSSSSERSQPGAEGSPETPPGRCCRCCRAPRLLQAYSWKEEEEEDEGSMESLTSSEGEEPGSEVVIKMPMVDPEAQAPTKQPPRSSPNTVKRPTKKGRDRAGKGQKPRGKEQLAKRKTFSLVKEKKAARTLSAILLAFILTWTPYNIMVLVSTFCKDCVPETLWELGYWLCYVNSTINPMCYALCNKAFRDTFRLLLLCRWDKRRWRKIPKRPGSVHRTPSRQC

M3-receptor = molecular target: T2, M3-receptor (Homo sapiens, UniProt P20309); assay: M3-receptor functional agonist assay; type: cell-based
T2 construct: expressed in transfected cells
Procedure: (§1) Functional assays were performed using the Alphascreen Surefire phopho-ERK1/2 assay. […] Once adhered, cells were serum starved overnight. Agonist stimulation was performed by the addition of […] agonist to the cells for a pre-optimized 5 min period (37°C). Media was removed and 50 μl of lysis buffer added. After 15 min a 4 μl sample was transferred to a 384-well plate and 7 μl of detection mixture added.

M2-receptor = molecular target: T3, M2-receptor (Homo sapiens, UniProt P08172); assay: M2-receptor functional agonist assay; type: cell-based; parameters: expressed in transfected cells
T3 sequence (P08172 1-466): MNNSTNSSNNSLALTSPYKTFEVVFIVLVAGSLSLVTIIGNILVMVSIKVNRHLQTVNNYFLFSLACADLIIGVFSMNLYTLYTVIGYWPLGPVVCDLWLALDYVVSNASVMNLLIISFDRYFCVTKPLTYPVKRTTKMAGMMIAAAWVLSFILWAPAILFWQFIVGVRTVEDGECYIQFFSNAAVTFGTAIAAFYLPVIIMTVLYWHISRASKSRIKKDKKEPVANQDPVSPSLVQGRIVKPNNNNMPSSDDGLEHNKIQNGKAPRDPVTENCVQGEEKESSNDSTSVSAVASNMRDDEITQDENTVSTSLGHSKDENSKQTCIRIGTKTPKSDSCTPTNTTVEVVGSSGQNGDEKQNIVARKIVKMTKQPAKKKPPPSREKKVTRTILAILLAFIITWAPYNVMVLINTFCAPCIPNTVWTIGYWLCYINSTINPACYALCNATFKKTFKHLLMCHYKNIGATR
Procedure: as §1

M4-receptor = molecular target: T4, M4-receptor (Homo sapiens, UniProt P08173); assay: M4-receptor functional agonist assay; type: cell-based; parameters: expressed in transfected cells; settings: for EC50: read-out: M4-receptor EC50
T4 sequence (P08173 1-479): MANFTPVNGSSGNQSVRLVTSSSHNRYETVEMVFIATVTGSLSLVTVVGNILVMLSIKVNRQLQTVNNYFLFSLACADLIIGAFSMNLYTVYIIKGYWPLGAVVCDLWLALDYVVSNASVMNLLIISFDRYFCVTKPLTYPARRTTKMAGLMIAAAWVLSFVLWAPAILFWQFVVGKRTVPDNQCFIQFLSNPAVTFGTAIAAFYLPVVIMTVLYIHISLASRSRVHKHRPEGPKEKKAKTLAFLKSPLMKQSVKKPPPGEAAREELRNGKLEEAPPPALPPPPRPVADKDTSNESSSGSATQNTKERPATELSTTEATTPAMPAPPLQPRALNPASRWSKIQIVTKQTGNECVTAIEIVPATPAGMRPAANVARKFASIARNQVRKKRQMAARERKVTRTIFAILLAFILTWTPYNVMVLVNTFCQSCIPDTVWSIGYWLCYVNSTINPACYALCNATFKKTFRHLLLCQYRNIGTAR
Procedure: as §1

Wistar rats = assay: Scopolamine-induced amnesia in passive avoidance; type: in vivo, rat; settings: rat passive avoidance, donepezil 0.01 mg/kg
Procedure: Male adult Wistar rats (Harlan, UK; approximately 11 weeks of age) were acclimatised to the experimental rooms for three days (study days 1-3) and handled for a further two days (study days 4 and 5) prior to the experiment.
Donepezil (0.01 and 0.1 mg/kg) was administered via intraperitoneal injection (in saline) 60 min prior to training. Rats were trained in a single-trial, step-through, light-dark passive avoidance paradigm. The training apparatus consisted of a chamber 300 mm in length, 260 mm wide, and 270 mm in height. The front and top were transparent, allowing the experimenter to observe the behavior of the animal inside the apparatus. The chamber was divided into two compartments, separated by a central shutter that contained a small opening (50 mm wide and 75 mm high) set close to the front of the chamber. The smaller of the compartments measured 90 mm in width and contained a low-light (~200 lux) illumination source. The larger compartment measured 210 mm in width and was not illuminated. The floor of this dark compartment consisted of a grid of 16 horizontal stainless-steel bars that were 5 mm in diameter and spaced 12.5 mm apart. A current generator supplied 0.75 mA to the grid floor, which was scrambled once every 0.5 s across the 16 bars.
Animals were placed facing the rear of the light compartment of the apparatus, immediately after which, spontaneous behavior was assessed. The timer was started once the animal completely turned to face the front of the chamber. Latency to enter the dark chamber was recorded, and having completely entered the dark compartment foot shock was administered to the animal, which immediately returned to the light compartment. Animals were then returned to their home cages. Between each training session, both compartments of the chamber were cleaned to remove any confounding olfactory cues. Vehicle (saline) or scopolamine (1 mg/kg) was administered to rats 6 hours after training. Recall of the inhibitory stimulus was evaluated 24 hour post-training on study day 7, by returning the animal into the light chamber and recording their latency to enter the dark chamber, a criterion time of 600 s was employed. Observation of the animals was made by overhead video camera linked to a monitor behind a screened area. Animal treatment was blinded to the observer.

[1] = SAR, Table S4, read-out: M1-receptor agonist activity EC50

T2 sequence (P20309 whole entry): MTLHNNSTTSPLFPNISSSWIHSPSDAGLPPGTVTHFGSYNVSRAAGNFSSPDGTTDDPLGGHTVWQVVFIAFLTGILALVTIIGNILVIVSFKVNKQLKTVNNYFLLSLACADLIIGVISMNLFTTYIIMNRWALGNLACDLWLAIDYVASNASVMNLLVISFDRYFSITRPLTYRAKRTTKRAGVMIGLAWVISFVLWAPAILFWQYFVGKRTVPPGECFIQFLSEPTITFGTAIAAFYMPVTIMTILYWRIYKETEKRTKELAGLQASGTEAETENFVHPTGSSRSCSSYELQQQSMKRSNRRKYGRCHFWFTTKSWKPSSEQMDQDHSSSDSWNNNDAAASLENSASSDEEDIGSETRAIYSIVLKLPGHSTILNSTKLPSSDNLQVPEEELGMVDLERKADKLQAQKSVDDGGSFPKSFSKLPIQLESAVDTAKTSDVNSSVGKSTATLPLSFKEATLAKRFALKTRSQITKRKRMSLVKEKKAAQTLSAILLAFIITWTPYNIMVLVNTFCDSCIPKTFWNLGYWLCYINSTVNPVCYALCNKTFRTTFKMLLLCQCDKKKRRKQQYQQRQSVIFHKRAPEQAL

Q: What does the source list for CCOC(=O)N1CCCC(N2CCC(C(=O)NCC(C)C)CC2)CC1 (stereo not drawn) [Compound 6]?
A: EC50 (human M1 receptor; calcium assays, read-out: Potency at the M1-receptor in calcium assays EC50): 0.079 µM; M3-receptor agonist activity (M3-receptor): no detectable agonist activity; M2-receptor agonist activity (M2-receptor): no detectable agonist activity; Lower potency at M4-receptors relative to M1 (M4-receptor; M4 vs M1): ten-fold; EC50 (M4-receptor): 0.794 µM

Q: Which M2-receptor agonist activity (M2-receptor) does the source give for Cc1cc(F)c2[nH]c(=O)n(C3CCN(C4CCOCC4)CC3)c2c1 [GSK1034702, reference compound] here?
A: significant M2-receptor agonist activity

Q: What does the source list for CCOC(=O)N1CCC[C@@H](N2CCC(C(=O)NC3(C)CCC3)CC2)CC1 [(R)-Compound 7]?
A: EC50 (human M1 receptor; [1]): 0.398 µM; EC50 (M3-receptor; read-out: M3-receptor EC50): > 20 µM; EC50 (M2-receptor; read-out: M2-receptor EC50): > 20 µM; EC50 (M4-receptor): 2.5 µM

Q: COc1cc2c(cc1OC)C(=O)C(CC1CCN(Cc3ccccc3)CC1)C2 (stereo not drawn) [donepezil, reference compound] was tested. Which Response alone (Wistar rats) did it give?
A: inactive

Q: How did the EC50 (human M1 receptor; fragment hit, read-out: EC50 at the M1-receptor) turn out when CCOC(=O)N1CCC(N2CCC(C(N)=O)CC2)CC1 [Compound 4] was run?
A: 3.5 µM

Q: What does the source list for CCOC(=O)N1CCC(N2CCC(C(=O)NCC(C)C)CC2)CC1 [Compound 5]?
A: EC50 (human M1 receptor; [1]): 0.316 µM; M2-receptor agonist activity (M2-receptor): weak; M4-receptor agonist activity (M4-receptor): weak
